Test results as given in publication PMC6272970 (Molecules, 2016).
Values after ≈ are worked out from the molar mass of the structure shown.

What was measured:
[1] = design: method as in PMID 25030991; conditions: rat plasma; 2.5 mg/kg sublingual vein administration; cited from earlier work
[2] = design: method as in PMID 11151743; conditions: healthy volunteers, various dose levels; quercetin glucuronides and/or sulfates measured; cited from earlier work
[3] = Solubility trials of rutin in water, ethanol, methanol and NADES, quantified by HPLC-DAD; type: physicochemical; conditions: 22 °C
Procedure: Samples were stirred on a magnetic stirrer (Stuart, Bibby Scientific Ltd., Stone, Staffordshire, UK) for one hour at room temperature and centrifuged for 21 min at 13,000 rpm with Eppendorf 5415 R centrifuge The time of one-hour stirring was chosen because it was sufficient for all the prepared mixtures to reach maximum concentration of rutin. […] Calibration curve was obtained injecting standard solution at different concentrations namely (50, 25, 10, 5 and 1 μg/mL) Calibration curve was as follows y = 17.832 x + 9.7822 (R^2 was 0.9998). Limit of Quantification was 1 μg/mL. For HPLC-DAD a series 1260 HPLC instrument (Agilent, Cernusco Sul Naviglio (MI), Italy) equipped with a quaternary pump, a diode-array detector, an auto sampler and a column oven compartment was used. Analyses were performed on Eclipse XDB C8 column (5 μm, 4.6 mm × 150 mm, Agilent). The mobile phase was (A) water-formic acid (99.9:0.1, v/v) and (B) acetonitrile. A gradient program was used as follows: [0 → 10[…] (60:40) 10 → 11[…] (0:100) 11 → 12[…] (0:100) 12 → 13[…] (90:10) 13 → 14[…] (90:10)]. The mobile phase flow rate was 1.2 mL/min and the injection volume was 10 μL. The chromatogram was recorded at 350 nm and spectral data for all peaks were obtained in the range of 190-400 nm. The retention time of rutin in the analysis conditions was 3.8 min.

C[C@@H]1O[C@@H](OC[C@H]2O[C@@H](Oc3c(-c4ccc(O)c(O)c4)oc4cc(O)cc(O)c4c3=O)[C@H](O)[C@@H](O)[C@@H]2O)[C@H](O)[C@H](O)[C@H]1O [rutin]
maximum concentration [1]: 1659 ng/mL | time of maximum concentration [1]: 5 min | rutin in plasma after oral dosing [2]: no rutin was detectable | solubility at 1 h ([3]; Citric Acid–Fructose 1:1 (NADES mixture 7), organic solvent or mixture, thermodynamic from solid, solvent mixture 7 Citric Acid–Fructose 1:1): 205 ± 5.1 µg/mL (≈ 336 µM) | solubility at 1 h ([3]; Glucose–Citric Acid–Water 1:1:1 (NADES mixture 9), solvent mixture 9 Glucose–Citric Acid–Water 1:1:1): 175 ± 3.7 µg/mL (≈ 287 µM) | solubility at 1 h ([3]; Glucose–Fructose–Sorbitol 1:1:1 (NADES mixture 6), organic solvent or mixture, thermodynamic from solid, solvent mixture 6 Glucose–Fructose–Sorbitol 1:1:1): 90.8 ± 1.9 µg/mL (≈ 149 µM) | solubility at 1 h ([3]; Glucose–Fructose–Water 1:1:1 (NADES mixture 5), organic solvent or mixture, thermodynamic from solid, solvent mixture 5 Glucose–Fructose–Water 1:1:1): 81.9 ± 2.5 µg/mL (≈ 134 µM) | solubility at 1 h ([3]; Proline–Glutamic Acid 1:1 (NADES mixture 10), solvent mixture 10 Proline–Glutamic Acid 1:1): 2260 ± 63.4 µg/mL (≈ 3700 µM) | solubility at 1 h ([3]; Proline–Glutamic Acid 2:1 (NADES mixture 11), organic solvent or mixture, thermodynamic from solid, solvent mixture 11 Proline–Glutamic Acid 2:1): 2940 ± 118 µg/mL (≈ 4810 µM) | solubility at 1 h ([3]; Tartaric Acid–Fructose 1:1 (NADES mixture 8), organic solvent or mixture, thermodynamic from solid, solvent mixture 8 Tartaric Acid–Fructose 1:1): 504 ± 16.4 µg/mL (≈ 826 µM) | solubility at 1 h ([3]; ethanol, solvent Ethanol, mean ± SD of 3): 2370 ± 93.2 µg/mL (≈ 3880 µM) | solubility at 1 h ([3]; methanol, solvent Methanol, mean ± SD of 3): 2050 ± 89.7 µg/mL (≈ 3360 µM) | solubility at 1 h ([3]; natural deep eutectic solvent (NADES), organic solvent or mixture, thermodynamic from solid, solvent mixture 1 Urea–Glucose–Citric Acid 1:1:1): 379 ± 8.5 µg/mL (≈ 620 µM) | solubility at 1 h ([3]; natural deep eutectic solvent (NADES), organic solvent or mixture, thermodynamic from solid, solvent mixture 2 Urea–Glucose–Fructose 1:1:1): 961 ± 30.6 µg/mL (≈ 1570 µM) | solubility at 1 h ([3]; natural deep eutectic solvent (NADES), organic solvent or mixture, thermodynamic from solid, solvent mixture 3 Urea–Tartaric Acid 1:1): 680 ± 19 µg/mL (≈ 1110 µM) | solubility at 1 h ([3]; natural deep eutectic solvent (NADES), organic solvent or mixture, thermodynamic from solid, solvent mixture 4 Urea–Choline chloride 1:1): 1880 ± 48.1 µg/mL (≈ 3080 µM) | solubility at 1 h ([3]; natural deep eutectic solvent (NADES), organic solvent or mixture, thermodynamic from solid, solvent mixture 12 Proline–Oxalic Acid 1:1): 749 ± 22.5 µg/mL (≈ 1230 µM) | solubility at 1 h ([3]; natural deep eutectic solvent (NADES), organic solvent or mixture, thermodynamic from solid, solvent mixture 14 Ornitine–Tartaric Acid 1:1): 210 ± 5.7 µg/mL (≈ 343 µM) | solubility at 1 h ([3]; natural deep eutectic solvent (NADES), organic solvent or mixture, thermodynamic from solid, solvent mixture 15 Arginine–Tartaric Acid 1:1): 363 ± 11.2 µg/mL (≈ 594 µM) | solubility at 1 h ([3]; natural deep eutectic solvent (NADES), organic solvent or mixture, thermodynamic from solid, solvent mixture 16 Citrulline–Tartaric Acid 1.1): 370 ± 13.1 µg/mL (≈ 607 µM) | solubility at 1 h ([3]; natural deep eutectic solvent (NADES), organic solvent or mixture, thermodynamic from solid, solvent mixture 17 Arginine–Oxalic Acid 1:1): 414 ± 13.6 µg/mL (≈ 679 µM) | solubility at 1 h ([3]; natural deep eutectic solvent (NADES), organic solvent or mixture, thermodynamic from solid, solvent mixture 18 Proline–Malic Acid 1:1): 900 ± 31.1 µg/mL (≈ 1470 µM) | solubility at 1 h ([3]; natural deep eutectic solvent (NADES), organic solvent or mixture, thermodynamic from solid, solvent mixture 19 Arginin–Malic Acid 1:1): 457 ± 17.8 µg/mL (≈ 749 µM) | solubility at 1 h ([3]; natural deep eutectic solvent (NADES), organic solvent or mixture, thermodynamic from solid, solvent mixture 20 Ornitine–Malic Acid 1:1): 408 ± 14.8 µg/mL (≈ 668 µM) | solubility at 1 h ([3]; natural deep eutectic solvent (NADES), organic solvent or mixture, thermodynamic from solid, solvent mixture 21 Citrulline–Malic Acid 1:1): 454 ± 18.5 µg/mL (≈ 744 µM) | solubility at 1 h ([3]; natural deep eutectic solvent (NADES), organic solvent or mixture, thermodynamic from solid, solvent mixture 22 Proline–Citric Acid 1:1): 672 ± 26.2 µg/mL (≈ 1100 µM) | solubility at 1 h ([3]; natural deep eutectic solvent (NADES), organic solvent or mixture, thermodynamic from solid, solvent mixture 23 Arginine–Citric Acid 1:1): 414 ± 13.3 µg/mL (≈ 679 µM) | solubility at 1 h ([3]; natural deep eutectic solvent (NADES), organic solvent or mixture, thermodynamic from solid, solvent mixture 24 Ornitine–Citric Acid1:1): 425 ± 17.2 µg/mL (≈ 696 µM) | solubility at 1 h ([3]; natural deep eutectic solvent (NADES), organic solvent or mixture, thermodynamic from solid, solvent mixture 25 Citrulline–Citric Acid 1:1): 460 ± 14.4 µg/mL (≈ 753 µM) | solubility at 1 h ([3]; natural deep eutectic solvent (NADES), organic solvent or mixture, thermodynamic from solid, solvent mixture 26 Proline–Glucose1:1): 879 ± 31.3 µg/mL (≈ 1440 µM) | solubility at 1 h ([3]; natural deep eutectic solvent (NADES), organic solvent or mixture, thermodynamic from solid, solvent mixture 27 Proline–Fructose 1:1): 1560 ± 43.8 µg/mL (≈ 2560 µM) | solubility at 1 h ([3]; natural deep eutectic solvent (NADES), organic solvent or mixture, thermodynamic from solid, solvent mixture 28 Proline–Choline Chloride 1:2): 2640 ± 101 µg/mL (≈ 4330 µM) | solubility at 1 h ([3]; natural deep eutectic solvent (NADES), organic solvent or mixture, thermodynamic from solid, solvent mixture 29 Proline–Choline Chloride 1:3): 2800 ± 103 µg/mL (≈ 4580 µM) | solubility at 1 h ([3]; natural deep eutectic solvent (NADES), organic solvent or mixture, thermodynamic from solid, solvent mixture 30 Choline Chloride–Malic Acid 1:1): 702 ± 22.3 µg/mL (≈ 1150 µM) | solubility at 1 h ([3]; water, solvent Water, mean ± SD of 3): 120 ± 4.9 µg/mL (≈ 197 µM)
